pIC50: −log10 of the molar value. Bridge positions count the residues as written; N and C are the ends. Square brackets hold non-standard residues; d marks the D form. Peptide text beside a SMILES is read from it. * marks the point of attachment. Bip = N[C@@H](Cc1ccc(-c2ccccc2)cc1)C(=O)O; Phe(3-Me) = Cc1cccc(C[C@H](N)C(=O)O)c1; 3Pal = N[C@@H](Cc1cccnc1)C(=O)O; 4Pal = N[C@@H](Cc1ccncc1)C(=O)O; Cha = N[C@@H](CC1CCCCC1)C(=O)O; Carboxymethyl = O=C(O)C*; Orn = NCCC[C@H](N)C(=O)O; Aun = NCCCCCCCCCCC(=O)O; Dab = NCC[C@H](N)C(=O)O; Dap = NC[C@H](N)C(=O)O; AEEA = NCCOCCOCC(=O)O
Molecular target: T1, PD-1/PD-L1 interaction (PE-labeled human PD-L1-Ig binding to Jurkat cell line over-expressing human PD-1) (Homo sapiens, UniProt Q15116)
T1 construct: expressed in transfected cells; host or cells: Jurkat
Experiment: Jurkat-PD-1 Cell Binding High-Content Screening Assay (CBA)
Format: cell-based
Conditions: Jurkat cell line over-expressing human PD-1; PE-labeled PD-L1-Ig 20 nM final; read-out: Jurkat hPD1-PDL1 IC50
Outline: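 Read-out is high-content imaging of cell-bound phycoerythrin-tagged PD-L1-Ig on fixed, Hoechst-counterstained Jurkat cells that over-express human PD-1. Compound exposure lasts 2 h at 37° C before the labeled ligand (20 nM final) is added for a further hour.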

T1 sequence (Q15116 25-288): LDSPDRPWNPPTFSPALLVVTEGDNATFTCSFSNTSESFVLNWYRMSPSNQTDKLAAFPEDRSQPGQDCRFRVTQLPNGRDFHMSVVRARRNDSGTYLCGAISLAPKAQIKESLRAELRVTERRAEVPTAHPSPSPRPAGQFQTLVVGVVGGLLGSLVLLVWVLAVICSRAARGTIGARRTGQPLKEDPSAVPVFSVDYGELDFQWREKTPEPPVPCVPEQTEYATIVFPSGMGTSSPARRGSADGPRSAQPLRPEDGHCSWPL

pIC50 | SMILES
7.75 | Cc1cccc(C[C@@H]2NC(=O)[C@H](CC(=O)O)NC(=O)[C@H](Cc3cccnc3)NC(=O)[C@H](CC(N)=O)NC(=O)CSC[C@@H](C(=O)N[C@@H](CCN)C(=O)NCCCCCCCCCCC(=O)O)NC(=O)[C@H](CCCN)NC(=O)[C@H](C(C)C)NC(=O)[C@H](CC3CCCCC3)NC(=O)[C@H](CCN)NC(=O)[C@@H](CC(C)C)NC(=O)[C@H](CCCN)NC(=O)[C@H](Cc3ccc(O)cc3)NC(=O)[C@H](Cc3ccc(-c4ccccc4)cc3)NC(=O)[C@H](C(C)C)NC2=O)c1 [Compound 2700] ({CH2CO}-N[3Pal]D[Phe(3-Me)]V[Bip]Y[Orn][dL][Dab][Cha]V[Orn]C[Dab][Aun]-OH; thioether N-14)
8.17 | CC(C)C[C@H]1NC(=O)[C@H](CCCN)NC(=O)[C@H](Cc2ccc(O)cc2)NC(=O)[C@H](Cc2ccc(-c3ccccc3)cc2)NC(=O)[C@H](C(C)C)NC(=O)[C@H](Cc2c[nH]c3ccccc23)NC(=O)[C@H](CC(=O)O)NC(=O)[C@H](Cc2ccc(OCC(=O)O)cc2)NC(=O)[C@H](Cc2ccncc2)NC(=O)CSC[C@@H](C(=O)N[C@@H](CCN)C(=O)NCCOCCOCC(=O)NCCCCCCCCCCC(=O)O)NC(=O)[C@H](CCCN)NC(=O)[C@H](C(C)C)NC(=O)[C@H](CC2CCCCC2)NC(=O)[C@H](CCN)NC1=O [Compound 2701] ({CH2CO}-[4Pal]Y(Carboxymethyl)DWV[Bip]Y[Orn][dL][Dab][Cha]V[Orn]C[Dab][AEEA][Aun]-OH; thioether N-14)
7.59 | CC(C)C[C@H]1NC(=O)[C@H](CCCN)NC(=O)[C@H](Cc2ccc(O)cc2)NC(=O)[C@H](Cc2ccc(-c3ccccc3)cc2)NC(=O)[C@H](C(C)C)NC(=O)[C@H](Cc2c[nH]c3ccccc23)NC(=O)[C@H](CC(=O)O)NC(=O)[C@H](Cc2ccc(OCC(=O)O)cc2)NC(=O)[C@H](Cc2ccncc2)NC(=O)CSC[C@@H](C(=O)N[C@@H](CCN)C(=O)NCCCCCCCCCCC(=O)O)NC(=O)[C@H](CCCN)NC(=O)[C@H](C(C)C)NC(=O)[C@H](CC2CCCCC2)NC(=O)[C@H](CCN)NC1=O [Compound 2702] ({CH2CO}-[4Pal]Y(Carboxymethyl)DWV[Bip]Y[Orn][dL][Dab][Cha]V[Orn]C[Dab][Aun]-OH; thioether N-14)
7.71 | CC(C)C[C@H]1NC(=O)[C@H](CCCN)NC(=O)[C@H](Cc2ccc(O)cc2)NC(=O)[C@H](Cc2ccc(-c3ccccc3)cc2)NC(=O)[C@H](C(C)C)NC(=O)[C@H](Cc2c[nH]c3ccccc23)NC(=O)[C@H](CC(=O)O)NC(=O)[C@H](Cc2ccc(O)cc2)NC(=O)[C@H](Cc2ccncc2)NC(=O)CSC[C@@H](C(=O)N[C@@H](CCN)C(=O)NCCOCCOCC(=O)NCCCCCCCCCCC(=O)O)NC(=O)[C@H](CCCN)NC(=O)[C@H](C(C)C)NC(=O)[C@H](CC2CCCCC2)NC(=O)[C@H](CCN)NC1=O [Compound 2703] ({CH2CO}-[4Pal]YDWV[Bip]Y[Orn][dL][Dab][Cha]V[Orn]C[Dab][AEEA][Aun]-OH; thioether N-14)
7.57 | CC(C)C[C@H]1NC(=O)[C@H](CCCN)NC(=O)[C@H](Cc2ccc(O)cc2)NC(=O)[C@H](Cc2ccc(-c3ccccc3)cc2)NC(=O)[C@H](C(C)C)NC(=O)[C@H](Cc2c[nH]c3ccccc23)NC(=O)[C@H](CC(=O)O)NC(=O)[C@H](Cc2ccc(O)cc2)NC(=O)[C@H](Cc2ccncc2)NC(=O)CSC[C@@H](C(=O)N[C@@H](CCN)C(=O)NCCCCCCCCCCC(=O)O)NC(=O)[C@H](CCCN)NC(=O)[C@H](C(C)C)NC(=O)[C@H](CC2CCCCC2)NC(=O)[C@H](CCN)NC1=O [Compound 2704] ({CH2CO}-[4Pal]YDWV[Bip]Y[Orn][dL][Dab][Cha]V[Orn]C[Dab][Aun]-OH; thioether N-14)
8.08 | Cc1cccc(C[C@@H]2NC(=O)[C@H](CC(=O)O)NC(=O)[C@H](Cc3ccc(OCC(=O)O)cc3)NC(=O)[C@H](Cc3ccncc3)NC(=O)CSC[C@@H](C(=O)N[C@@H](CCN)C(=O)NCCOCCOCC(=O)NCCCCCCCCCCC(=O)O)NC(=O)[C@H](CCCN)NC(=O)[C@H](C(C)C)NC(=O)[C@H](CC3CCCCC3)NC(=O)[C@H](CCN)NC(=O)[C@@H](CC(C)C)NC(=O)[C@H](CCCN)NC(=O)[C@H](Cc3ccc(O)cc3)NC(=O)[C@H](Cc3ccc(-c4ccccc4)cc3)NC(=O)[C@H](C(C)C)NC2=O)c1 [Compound 2705] ({CH2CO}-[4Pal]Y(Carboxymethyl)D[Phe(3-Me)]V[Bip]Y[Orn][dL][Dab][Cha]V[Orn]C[Dab][AEEA][Aun]-OH; thioether N-14)
7.74 | Cc1cccc(C[C@@H]2NC(=O)[C@H](CC(=O)O)NC(=O)[C@H](Cc3ccc(OCC(=O)O)cc3)NC(=O)[C@H](Cc3ccncc3)NC(=O)CSC[C@@H](C(=O)N[C@@H](CCN)C(=O)NCCCCCCCCCCC(=O)O)NC(=O)[C@H](CCCN)NC(=O)[C@H](C(C)C)NC(=O)[C@H](CC3CCCCC3)NC(=O)[C@H](CCN)NC(=O)[C@@H](CC(C)C)NC(=O)[C@H](CCCN)NC(=O)[C@H](Cc3ccc(O)cc3)NC(=O)[C@H](Cc3ccc(-c4ccccc4)cc3)NC(=O)[C@H](C(C)C)NC2=O)c1 [Compound 2706] ({CH2CO}-[4Pal]Y(Carboxymethyl)D[Phe(3-Me)]V[Bip]Y[Orn][dL][Dab][Cha]V[Orn]C[Dab][Aun]-OH; thioether N-14)
7.68 | Cc1cccc(C[C@@H]2NC(=O)[C@H](CC(=O)O)NC(=O)[C@H](Cc3ccc(O)cc3)NC(=O)[C@H](Cc3ccncc3)NC(=O)CSC[C@@H](C(=O)N[C@@H](CCN)C(=O)NCCOCCOCC(=O)NCCCCCCCCCCC(=O)O)NC(=O)[C@H](CCCN)NC(=O)[C@H](C(C)C)NC(=O)[C@H](CC3CCCCC3)NC(=O)[C@H](CCN)NC(=O)[C@@H](CC(C)C)NC(=O)[C@H](CCCN)NC(=O)[C@H](Cc3ccc(O)cc3)NC(=O)[C@H](Cc3ccc(-c4ccccc4)cc3)NC(=O)[C@H](C(C)C)NC2=O)c1 [Compound 2707] ({CH2CO}-[4Pal]YD[Phe(3-Me)]V[Bip]Y[Orn][dL][Dab][Cha]V[Orn]C[Dab][AEEA][Aun]-OH; thioether N-14)
7.20 | Cc1cccc(C[C@@H]2NC(=O)[C@H](CC(=O)O)NC(=O)[C@H](Cc3ccc(O)cc3)NC(=O)[C@H](Cc3ccncc3)NC(=O)CSC[C@@H](C(=O)N[C@@H](CCN)C(=O)NCCCCCCCCCCC(=O)O)NC(=O)[C@H](CCCN)NC(=O)[C@H](C(C)C)NC(=O)[C@H](CC3CCCCC3)NC(=O)[C@H](CCN)NC(=O)[C@@H](CC(C)C)NC(=O)[C@H](CCCN)NC(=O)[C@H](Cc3ccc(O)cc3)NC(=O)[C@H](Cc3ccc(-c4ccccc4)cc3)NC(=O)[C@H](C(C)C)NC2=O)c1 [Compound 2708] ({CH2CO}-[4Pal]YD[Phe(3-Me)]V[Bip]Y[Orn][dL][Dab][Cha]V[Orn]C[Dab][Aun]-OH; thioether N-14)
8.08 | Cc1cccc(C[C@@H]2NC(=O)[C@H](CC(=O)O)NC(=O)[C@H](Cc3ccncc3)NC(=O)[C@H](Cc3ccc(OCC(=O)O)cc3)NC(=O)CSC[C@@H](C(=O)N[C@@H](CCN)C(=O)NCCOCCOCC(=O)NCCCCCCCCCCC(=O)O)NC(=O)[C@H](CCCN)NC(=O)[C@H](C(C)C)NC(=O)[C@H](CC3CCCCC3)NC(=O)[C@H](CCN)NC(=O)[C@@H](CC(C)C)NC(=O)[C@H](CCCN)NC(=O)[C@H](Cc3ccc(O)cc3)NC(=O)[C@H](Cc3ccc(-c4ccccc4)cc3)NC(=O)[C@H](C(C)C)NC2=O)c1 [Compound 2709] ({CH2CO}-Y(Carboxymethyl)[4Pal]D[Phe(3-Me)]V[Bip]Y[Orn][dL][Dab][Cha]V[Orn]C[Dab][AEEA][Aun]-OH; thioether N-14)
7.73 | Cc1cccc(C[C@@H]2NC(=O)[C@H](CC(=O)O)NC(=O)[C@H](Cc3ccncc3)NC(=O)[C@H](Cc3ccc(OCC(=O)O)cc3)NC(=O)CSC[C@@H](C(=O)N[C@@H](CCN)C(=O)NCCCCCCCCCCC(=O)O)NC(=O)[C@H](CCCN)NC(=O)[C@H](C(C)C)NC(=O)[C@H](CC3CCCCC3)NC(=O)[C@H](CCN)NC(=O)[C@@H](CC(C)C)NC(=O)[C@H](CCCN)NC(=O)[C@H](Cc3ccc(O)cc3)NC(=O)[C@H](Cc3ccc(-c4ccccc4)cc3)NC(=O)[C@H](C(C)C)NC2=O)c1 [Compound 2710] ({CH2CO}-Y(Carboxymethyl)[4Pal]D[Phe(3-Me)]V[Bip]Y[Orn][dL][Dab][Cha]V[Orn]C[Dab][Aun]-OH; thioether N-14)
7.98 | Cc1cccc(C[C@@H]2NC(=O)[C@H](CC(=O)O)NC(=O)[C@H](Cc3ccc(OCC(=O)O)cc3)NC(=O)[C@H](CN)NC(=O)CSC[C@@H](C(=O)N[C@@H](CCN)C(=O)NCCCCCCCCCCC(=O)O)NC(=O)[C@H]([C@@H](C)O)NC(=O)[C@H](C(C)C)NC(=O)[C@H](CC3CCCCC3)NC(=O)[C@H](CCN)NC(=O)[C@@H](CC(C)C)NC(=O)[C@H](CCCN)NC(=O)[C@H](Cc3ccc(O)cc3)NC(=O)[C@H](Cc3ccc(-c4ccccc4)cc3)NC(=O)[C@H](Cc3ccc(O)cc3)NC2=O)c1 [Compound 2711] ({CH2CO}-[Dap]Y(Carboxymethyl)D[Phe(3-Me)]Y[Bip]Y[Orn][dL][Dab][Cha]VTC[Dab][Aun]-OH; thioether N-14)
7.69 | Cc1cccc(C[C@@H]2NC(=O)[C@H](CC(=O)O)NC(=O)[C@H](Cc3ccc(OCC(=O)O)cc3)NC(=O)[C@H](CN)NC(=O)CSC[C@@H](C(=O)N[C@@H](CCN)C(=O)NCCCCCCCCCCC(=O)O)NC(=O)[C@H](CO)NC(=O)[C@H](C(C)C)NC(=O)[C@H](CC3CCCCC3)NC(=O)[C@H](CCN)NC(=O)[C@@H](CC(C)C)NC(=O)[C@H](CCCN)NC(=O)[C@H](Cc3ccc(O)cc3)NC(=O)[C@H](Cc3ccc(-c4ccccc4)cc3)NC(=O)[C@H](Cc3ccc(O)cc3)NC2=O)c1 [Compound 2712] ({CH2CO}-[Dap]Y(Carboxymethyl)D[Phe(3-Me)]Y[Bip]Y[Orn][dL][Dab][Cha]VSC[Dab][Aun]-OH; thioether N-14)

Source: US20260022142A1, “MACROCYCLIC IMMUNOMODULATORS” (Bristol-Myers Squibb Company, priority 2022, published 2026)
